From patent publication US20110178062A1, “INDOLE AND BENZOTHIOPHENE COMPOUNDS AS MODULATORS OF THE HISTAMINE H3 RECEPTOR” (priority 2007, published 2011)

Biological target: T1, cloned human H3 receptors, stably expressed in SK-N-MC cells (Homo sapiens, UniProt Q9Y5N1)
T1 construct: expressed in transfected cells; host or cells: SK-N-MC cells
Assay: H3 Receptor Binding (Human)
Settings: average of the results obtained
Description: Binding of compounds to the cloned human H3 receptors, stably expressed in SK-N-MC cells, was performed as described by Barbier, A. J. et al. (Br. J. Pharmacol. 2004, 143(5), 649-661). Data for compounds tested in this assay are presented in Table 1 as an average of the results obtained.

T1 sequence (Q9Y5N1 whole entry): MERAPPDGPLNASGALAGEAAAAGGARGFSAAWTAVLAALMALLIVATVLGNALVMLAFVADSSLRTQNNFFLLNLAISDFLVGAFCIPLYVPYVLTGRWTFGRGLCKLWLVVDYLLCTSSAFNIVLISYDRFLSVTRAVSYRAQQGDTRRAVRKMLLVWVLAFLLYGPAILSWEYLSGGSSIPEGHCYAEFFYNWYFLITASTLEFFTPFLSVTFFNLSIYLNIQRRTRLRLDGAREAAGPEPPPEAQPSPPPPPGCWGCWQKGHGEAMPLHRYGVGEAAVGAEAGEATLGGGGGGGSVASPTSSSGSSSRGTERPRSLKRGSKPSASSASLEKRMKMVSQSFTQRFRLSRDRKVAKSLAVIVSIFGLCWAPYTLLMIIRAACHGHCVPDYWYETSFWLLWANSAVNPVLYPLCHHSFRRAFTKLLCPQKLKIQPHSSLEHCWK

| SMILES | Ki |
| --- | --- |
| CC(C)N1CCN(C(=O)c2ccc3[nH]cc(CN4CCOCC4)c3c2)CC1 [Example 35, (4-Isopropyl-piperazin-1-yl)-(3-morpholin-4-ylmethyl-1H-indol-5-yl)-methanone] | 265 nM |
| O=C(c1ccc2c(CN3CCC(N4CCCCC4)CC3)c[nH]c2c1)N1CCC(CO)CC1 [Example 79, (3-[1,4′]Bipiperidinyl-1′-ylmethyl-1H-indol-6-yl)-(4-hydroxymethyl-piperidin-1-yl)-methanone] | 62 nM |
| O=C(c1ccc2c(CN3CCCN(C4CC4)CC3)c[nH]c2c1)N1CCCCC1 [Example 31, [3-(4-Cyclopropyl-[1,4]diazepan-1-ylmethyl)-1H-indol-6-yl]-piperidin-1-yl-methanone] | 214 nM |
| O=C(c1ccc2c(CN3CCCN(C4CCC4)CC3)c[nH]c2c1)N1CCC(Cc2ccccc2)CC1 [Example 108, (4-Benzyl-piperidin-1-yl)-[3-(4-cyclobutyl-[1,4]diazepan-1-ylmethyl)-1H-indol-6-yl]-methanone] | 16 nM |
| O=C(c1ccc2c(CN3CCN(C4CC4)CC3)c[nH]c2c1)N1CCCCC1 [Example 28, [3-(4-Cyclopropyl-piperazin-1-ylmethyl)-1H-indol-6-yl]-piperidin-1-yl-methanone] | 177 nM |
| CC(=O)N1CCCN(Cc2c[nH]c3cc(C(=O)N4CCN(C(C)C)CC4)ccc23)CC1 [Example 50, 1-{4-[6-(4-Isopropyl-piperazine-1-carbonyl)-1H-indol-3-ylmethyl]-[1,4]diazepam-1-yl}-ethanone] | 3 nM |
| O=C(c1ccc2c(CN3CCN(C4CCCC4)CC3)c[nH]c2c1)N1CCC(Cc2ccccc2)CC1 [Example 99, (4-Benzyl-piperidin-1-yl)-[3-(4-cyclopentyl-piperazin-1-ylmethyl)-1H-indol-6-yl]-methanone] | 28 nM |
| CC(C)N1CCN(Cc2c[nH]c3cc(C(=O)N4CCCCC4)ccc23)CC1 [Example 27, [3-(4-Isopropyl-piperazin-1-ylmethyl)-1H-indol-6-yl]-piperidin-1-yl-methanone] | 28 nM |
| O=C(c1ccc2c(CN3CCOCC3)c[nH]c2c1)N1CCC(N2CCCC2=O)CC1 [Example 14, 1-[1-(3-Morpholin-4-ylmethyl-1H-indole-6-carbonyl)-piperidin-4-yl]-pyrrolidin-2-one] | 609 nM |
| O=C(c1ccc2c(CN3CCN(C4CCC4)CC3)c[nH]c2c1)N1CCCCCC1 [Example 93, Azepan-1-yl-[3-(4-cyclobutyl-piperazin-1-ylmethyl)-1H-indol-6-yl]-methanone] | 38 nM |
| CC(C)N1CCN(C(=O)c2ccc3c(CN4CCN(CCc5ccccc5)CC4)c[nH]c3c2)CC1 [Example 56, (4-Isopropyl-piperazin-1-yl)-[3-(4-phenethyl-piperazin-1-ylmethyl)-1H-indol-6-yl]-methanone] | 2 nM |
| O=C(c1ccc2scc(C(=O)N3CCCCC3)c2c1)N1CCN(C2CCC2)CC1 [Example 105, [5-(4-Cyclobutyl-piperazine-1-carbonyl)-benzo[b]thiophen-3-yl]-piperidin-1-yl-methanone] | 215 nM |
| O=C(c1ccc2c(CN3CCN(C4CCC4)CC3)c[nH]c2c1)N1CCSCC1 [Example 70, [3-(4-Cyclobutyl-piperazin-1-ylmethyl)-1H-indol-6-yl]-thiomorpholin-4-yl-methanone] | 27 nM |
| CC(C)N1CCN(C(=O)c2ccc3c(CN4CCC(Cc5ccccc5)CC4)c[nH]c3c2)CC1 [Example 55, [3-(4-Benzyl-piperidin-1-ylmethyl)-1H-indol-6-yl]-(4-isopropyl-piperazin-1-yl)-methanone] | 1 nM |
| CN(C)C1CCN(Cc2c[nH]c3cc(C(=O)N4CCC(CO)CC4)ccc23)CC1 [Example 96, [3-(4-Dimethylamino-piperidin-1-ylmethyl)-1H-indol-6-yl]-(4-hydroxymethyl-piperidin-1-yl)-methanone] | 439 nM |
| CC(C)N1CCN(C(=O)c2cccc3[nH]cc(CN4CCOCC4)c23)CC1 [Example 39, (4-Isopropyl-piperazin-1-yl)-(3-morpholin-4-ylmethyl-1H-indol-4-yl)-methanone] | > 10000 nM |
| CC(C)N1CCN(C(=O)c2ccc3c(CN4CCN(C(c5ccccc5)c5ccccc5)CC4)c[nH]c3c2)CC1 [Example 53, [3-(4-Benzydryl-piperazin-1-ylmethyl)-1H-indol-6-yl]-(4-isopropyl-piperazin-1-yl)-methanone] | 19 nM |
| CC(C)N1CCN(C(=O)c2ccc3c(CN4CCN(Cc5ccccc5)CC4)c[nH]c3c2)CC1 [Example 51, [3-(4-Benzyl-piperazin-1-ylmethyl)-1H-indol-6-yl]-(4-isopropyl-piperazin-1-yl)-methanone] | 2 nM |
| O=C(c1ccc2c(CN3CCC(N4CCCCC4)CC3)c[nH]c2c1)N1CCC(Cc2ccccc2)CC1 [Example 106, (4-Benzyl-piperidin-1-yl)-(3-[1,4′]bipiperidinyl-1′-ylmethyl-1H-indol-6-yl)-methanone] | 70 nM |
| O=C(c1cccc2[nH]cc(CN3CCN(C4CCC4)CC3)c12)N1CCCCC1 [Example 37, [3-(4-Cyclobutyl-piperazin-1-ylmethyl)-1H-indol-4-yl]-piperidin-1-yl-methanone] | 318 nM |
| O=C(c1ccc2c(CN3CCCN(C4CCC4)CC3)c[nH]c2c1)N1CCOCC1 [Example 77, [3-(4-Cyclobutyl-[1,4]diazepan-1-ylmethyl)-1H-indol-6-yl]-morpholin-4-yl-methanone] | 38 nM |
| Cc1cccnc1CNC(=O)c1ccc2c(CN3CCOCC3)c[nH]c2c1 [Example 12, 3-Morpholin-4-ylmethyl-1H-indole-6-carboxylic acid (3-methyl-pyridin-2-ylmethyl)-amide] | 2000 nM |
| CC(C)N1CCN(Cc2c[nH]c3cc(C(=O)N4CCC(CO)CC4)ccc23)CC1 [Example 82, (4-Hydroxymethyl-piperidin-1-yl)-[3-(4-isopropyl-piperazin-1-ylmethyl)-1H-indol-6-yl]-methanone] | 34 nM |
| O=C(c1ccc2c(CN3CCN(C4CCC4)CC3)c[nH]c2c1)N1CCC(Cc2ccccc2)CC1 [Example 107, (4-Benzyl-piperidin-1-yl)-[3-(4-cyclobutyl-piperazin-1-ylmethyl)-1H-indol-6-yl]-methanone] | 12 nM |
| O=C(c1ccc2c(CN3CCC(N4CCCCC4)CC3)c[nH]c2c1)N1CCOCC1 [Example 73, (3-[1,4′]Bipiperidinyl-1′-ylmethyl-1H-indol-6-yl)-morpholin-4-yl-methanone] | 205 nM |
| CC(C)N1CCN(Cc2c[nH]c3cc(C(=O)N4CCOCC4)ccc23)CC1 [Example 76, [3-(4-Isopropyl-piperazin-1-ylmethyl)-1H-indol-6-yl]-morpholin-4-yl-methanone] | 54 nM |
| O=C(c1cccc2[nH]cc(CN3CCCCC3)c12)N1CCN(C2CCC2)CC1 [Example 42, (4-Cyclobutyl-piperazin-1-yl)-(3-piperidin-1-ylmethyl-1H-indol-4-yl)-methanone] | 1500 nM |
| CC(C)N1CCCN(Cc2c[nH]c3cc(C(=O)N4CCCCC4)ccc23)CC1 [Example 30, [3-(4-Isopropyl-[1,4]diazepan-1-ylmethyl)-1H-indol-6-yl]-piperidin-1-yl-methanone] | 26 nM |
| O=C(c1ccc2c(CN3CCCN(C4CCC4)CC3)c[nH]c2c1)N1CCCCCC1 [Example 98, Azepan-1-yl-[3-(4-cyclobutyl-[1,4]diazepan-1-ylmethyl)-1H-indol-6-yl]-methanone] | 34 nM |
